According to patent US12516022B2, “Derivatives of aryl hydrocarbon receptor agonists” (AZORA THERAPEUTICS, INC., priority 2021, dated 2026):

How the values were obtained:
[1] = Stability of indirubin prodrugs in simulated fluids (FaSSIF, FaSSGF), 24 h at 37° C., UPLC-MS; format: physicochemical
Procedure: 10.41 g fasted state simulated intestinal fluid (FaSSIF) buffer concentrate was dissolved in 240.3 g deionized water and 560 mg FaSSIF powder added. The mixture was stirred until complete dissolution observed. The test compound (approx. 1-3 mg) was placed in 5.00 mL of FaSSIF solution. Samples of the solution with the test compound were taken after 24 hours in at 37° C. (oven-controlled temperature).
36.78 g fasted state simulated gastric fluid (FaSSGF) buffer concentrate was dissolved in 961.9 g deionized water and 60 mg FaSSGF powder added. The mixture was stirred until complete dissolution observed. The test compound (approx. 1-3 mg) was placed in 5.00 mL of FaSSGF solution. Samples of the solution with the test compound were taken after 24 hours in at 37° C. (oven-controlled temperature).
UPLC-MS analysis of the samples taken at 24 hours was carried out on a Waters Acquity UPLC system consisting of an Acquity I-Class Sample Manager-FL, Acquity I-Class Binary Solvent Manager and an Acquity UPLC Column Manager. UV detection was afforded using an Acquity UPLC PDA detector (scanning from 210 to 400 nm), whilst mass detection was achieved using an Acquity QDa detector (mass scanning from 100-1250 Da; positive and negative modes simultaneously), and ELS detection was achieved using an Acquity UPLC ELS Detector. A Waters Acquity UPLC BEH C18 column (2.1 Å˜50 mm, […]) was used to separate the analytes. Samples were prepared by dissolution (with or without sonication) into 1 mL of 50% (v/v) MeCN in water. The resulting solutions were then filtered through a […] syringe filter before submitting for analysis. All of the solvents, including formic acid and 36% ammonia solution, were purchased as the HPLC grade.

[2] = biological target: T1, AhR (Rattus norvegicus, UniProt P41738); assay: AhR/arnt-luciferase reporter assay in rat H4IIE cells
T1 sequence (P41738 10-853): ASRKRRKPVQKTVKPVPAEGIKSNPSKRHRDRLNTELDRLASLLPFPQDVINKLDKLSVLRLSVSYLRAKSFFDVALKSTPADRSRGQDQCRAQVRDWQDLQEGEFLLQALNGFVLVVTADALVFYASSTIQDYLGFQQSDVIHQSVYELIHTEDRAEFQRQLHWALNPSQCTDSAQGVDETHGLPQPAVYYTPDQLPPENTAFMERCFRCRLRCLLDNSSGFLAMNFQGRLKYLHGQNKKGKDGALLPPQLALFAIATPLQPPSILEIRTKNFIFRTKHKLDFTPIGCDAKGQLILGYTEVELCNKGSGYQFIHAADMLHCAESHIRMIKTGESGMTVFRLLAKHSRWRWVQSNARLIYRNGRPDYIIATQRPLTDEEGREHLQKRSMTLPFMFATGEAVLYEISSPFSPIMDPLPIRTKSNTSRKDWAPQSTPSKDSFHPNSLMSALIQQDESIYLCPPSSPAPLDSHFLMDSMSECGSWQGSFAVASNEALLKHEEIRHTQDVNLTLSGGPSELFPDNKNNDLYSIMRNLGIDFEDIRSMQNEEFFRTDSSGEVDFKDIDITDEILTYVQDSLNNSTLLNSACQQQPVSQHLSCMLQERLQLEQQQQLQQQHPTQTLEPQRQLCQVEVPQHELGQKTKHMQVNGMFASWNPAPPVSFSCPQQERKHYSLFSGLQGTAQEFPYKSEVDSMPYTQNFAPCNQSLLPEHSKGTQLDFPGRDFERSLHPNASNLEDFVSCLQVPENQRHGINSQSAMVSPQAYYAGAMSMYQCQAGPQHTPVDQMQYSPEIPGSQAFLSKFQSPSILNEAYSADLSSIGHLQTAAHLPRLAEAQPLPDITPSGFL
Procedure: TCDD and MeBio were included in the study as positive controls. These were added into cell culture media containing charcoal-stripped fetal bovine serum to produce a 2× stock and then added to the reporter cells. The reporter cells were human Huh7 cells or Rat H4IIE cell lines with the native AhR and an AhR/arnt-Luciferase reporter vector. The final concentration of DM50 was 0.1%. Cells were incubated for 22 hours at 37° C. prior to addition of the luciferase detection reagent and measurement of activity in relative luminescence units.

[3] = Indirubin levels in plasma, colon and lung of colitis mice, LC-MS/MS (Example 8); format: in vivo; conditions: six hours after the last oral dose, indirubin molar equivalent of 15 mg/kg twice daily
Procedure: Five animals from each group in Example 7 were euthanized six hours after the last oral dose. At this time plasma, lung and colon was harvested. Colon was washed three times in cold phosphate buffered saline (PBS) to remove colon contents.
Indirubin was detected utilizing LC-MS/MS.
To prepare samples, an aliquot of 20 μL unknown sample, calibration standard, quality control, single blank and double blank samples were added to the 96-well plate. Samples (except the double blank) for plasma were quenched with 100 μL internal standard respectively (double blank sample was quenched with 100 μL acetonitrile (ACN)), samples (except the double blank) for liver, lung and colon were quenched with 80 μL internal standard respectively (double blank sample was quenched with 80 μL ACN), and then the mixture was vortex-mixed for 5 minutes at 800 rpm and centrifuged for 15 minutes at 3220 g (4000 rpm), at 4° C. 50 μL supernatant was transfer to another clean 96-well plate and the supernatant were directly injected for LC-MS/MS analysis.

[4] = Indirubin solubility in biorelevant media (FaSSIF, FaSSGF), HPLC; format: physicochemical; conditions: for Solubility in the simulated fluids: FaSSGF and FaSSIF
Procedure: Biorelevant media was prepared as per the supplier's (Biorelevant) method, using FaSSIF/FeSSIF/FaSSGF powders. In brief, FaSSGF media was prepared using 0.06 g/L FaSSIF/FeSSIF/FaSSGF powder in 2 g/L NaCl solution, pH adjusted to 1.6 with 1N HCl. FaSSIF media was prepared with 2.24 g/L FaSSIF/FeSSIF/FaSSGF powder in sodium phosphate buffer, pH adjusted to 6.5 with 1N NaOH. (Sodium phosphate buffer prepared as a 0.42 g/L NaOH, 3.95 g/L NaH2PO4·H2O, 6.19 g/L NaCl solution).
Solubility assessments were performed as follows. An individual flask was prepared for each media and time point. Flasks were placed in a shaking water bath kept at 37° C. Flasks were removed from the bath at specified time points of 1 hour, 4 hours and 24 hours, allowed to cool, and an aliquot taken and filtered.

[5] = tested on: dextran sodium sulfate (DSS)-induced acute colitis; assay: DSS-induced acute colitis mouse model, exemplary compounds (Example 7); format: in vivo; conditions: mice, oral gavage twice daily for 9 days, indirubin molar equivalent of 15 mg/kg
Procedure: Eight week old female C57 BL/6J mice, around 20 g body weight purchased from Charles River Laboratories were bred in specific pathogen free IVC cages (4 mice in each cage) in a temperature controlled (20±2° C.) room with a 12 hour light-dark cycle. Chow pellets and tap water were available ad libitum. All experimental protocols were approved by the Institutional Animal Care and Use Committee. The mice were acclimated at the animal facility for at least of three days before the experiments. To generate dextran sodium sulfate (DSS)-induced acute colitis, the mice were induced with 3% DSS (molecular weight 36,000-50,000; […] DSS solution was freshly prepared and changed daily. These mice were euthanized on day 8 (9th day of the experiment). Body weight and disease activity index (DAI) soring were recorded daily to assess the colitis. DAI score was the sum of the weight loss score, stool score and bleeding subscores. A blinded scoring system was employed to assess the colitis. The DAI scorer blinded to the group information and animal ID was responsible for the stool consistency and bleeding evaluations. DAI scoring standards will be followed as below. A study was conducted as in set forth in Example 6. […] Mice in the vehicle group were given only 200 μL distilled water by gavage.

Structure (SMILES) | Fraction (percent) of indirubin ([1]; FaSSGF 37° C. 24 h) | Fraction (percent) of starting material (SM) ([1]; FaSSGF 37° C. 24 h) | Fraction (percent) of indirubin ([1]; FaSSIF 37° C. 24 h) | Fraction (percent) of starting material (SM) ([1]; FaSSIF 37° C. 24 h) | also measured
CN(C)CCCCNC(=O)N1C(=O)/C(=C2\Nc3ccccc3C2=O)c2ccccc21 | 0% | 100% | 0% | 100% | –
O=C1Nc2ccccc2/C1=C1/Nc2ccccc2/C1=N\O | 0% | 100% | 0% | 100% | –
O=C1Nc2ccccc2/C1=C1/Nc2ccccc2C1=O [indirubin, reference compound] | – | – | – | – | EC50 [2]: ~654 nM
O=C1Nc2ccccc2/C1=C1/Nc2ccccc2C1=O [synthetic indirubin] | – | – | – | – | Mean Indirubin Level, Colon [3]: 2.43 ng/g; Mean Indirubin Level, Lung [3]: 2.12 ng/g; Mean Indirubin Level, Plasma [3]: 0.05 ng/mL; % indirubin recovered in solution ([4]; FaSSIF 24 hr, 37° C., 5 μg/mL indirubin or molar equivalent): 0.1%; Colon length versus vehicle [5]: vehicle only have a shorter colon than those treated with synthetic indirubin
CN1CCN(CN2C(=O)/C(=C3\Nc4ccccc4C3=O)c3ccccc32)CC1 [Compound 10] | – | – | – | – | Solubility in the simulated fluids [4]: soluble in the simulated fluids
CC(=O)NCCNC(=O)N1C(=O)/C(=C2\Nc3ccccc3C2=O)c2ccccc21 | 0% | 100% | 0% | 100% | –
O=C1/C(=C2/C(=O)N(CO)c3ccccc32)Nc2ccccc21 [drawing 219] | 13% | 87% | 100% | 0% | –
O=C1/C(=C2/C(=O)N(C(=O)NCCNS(=O)(=O)C(F)(F)F)c3ccccc32)Nc2ccccc21 | 1% | 93% | 0% | 100% | –
CCN(CC)CN1C(=O)/C(=C2\Nc3ccccc3C2=O)c2ccccc21 [Compound 9] | – | – | – | – | Solubility in the simulated fluids [4]: soluble in the simulated fluids
CN1CCN(CCNC(=O)N2C(=O)/C(=C3\Nc4ccccc4C3=O)c3ccccc32)CC1 | 2% | 93% | 0% | 100% | –
Cl.NCCCNC(=O)N1C(=O)/C(=C2\Nc3ccccc3C2=O)c2ccccc21 | 7% | 86% | 0% | 100% | –
CCCCCCCCCCC(=O)N1C(=O)/C(=C2\Nc3ccccc3C2=O)c2ccccc21 | 0% | 100% | 0% | 100% | –
O=C1/C(=C2/C(=O)N(C(=O)N3CCOCC3)c3ccccc32)Nc2ccccc21 | 0% | 100% | 0% | 100% | –
O=C1/C(=C2/C(=O)N(CN3CCCC3)c3ccccc32)Nc2ccccc21 [Compound 41] | – | – | – | – | Efficacy (percent of initial body weight, DAI score) [5]: more effective than an equimolar amount of indirubin
O=C1/C(=C2/C(=O)N(C(=O)NC3CCOCC3)c3ccccc32)Nc2ccccc21 [drawing 236] | 13% | 68% | 10% | 57% | –

Second part, led by results:

Fraction (percent) of indirubin ([1]; FaSSGF 37° C. 24 h) | Fraction (percent) of starting material (SM) ([1]; FaSSGF 37° C. 24 h) | Fraction (percent) of indirubin ([1]; FaSSIF 37° C. 24 h) | Fraction (percent) of starting material (SM) ([1]; FaSSIF 37° C. 24 h) | Structure (SMILES) | also measured
2% | 100% | 2% | 91% | COCN1C(=O)/C(=C2\Nc3ccccc3C2=O)c2ccccc21 | –
0% | 100% | 0% | 100% | O=C(O)CCC(=O)OCN1C(=O)/C(=C2\Nc3ccccc3C2=O)c2ccccc21 | –
– | – | 19% | 50% | CN1CCN(CN2C(=O)/C(=C3\Nc4ccccc4C3=O)c3ccccc32)CC1 [drawing 222] | –
0% | 100% | 0% | 100% | O=C1/C(=C2/C(=O)N(CS(=O)(=O)c3ccccc3)c3ccccc32)Nc2ccccc21 | –
0% | 100% | 0% | 100% | CCOC(=O)N1C(=O)/C(=C2\Nc3ccccc3C2=O)c2ccccc21 | –
3% | 94% | 0% | 100% | CC(=O)OCN1C(=O)/C(=C2\Nc3ccccc3C2=O)c2ccccc21 | –
0% | 100% | 0% | 100% | O=C1/C(=C2/C(=O)N(CSc3ccccc3)c3ccccc32)Nc2ccccc21 | –
